Our source for the MIC80 and solubility values is ChEMBL document CHEMBL6087415, “Discovery of new fungal jumonji H3K27 demethylase inhibitors for the treatment of Cryptococcus neoformans and Candida auris infections” (Eur J Med Chem, 2025).

Molecules are shown by their SMILES. ≈ marks a conversion by molar mass, not a printed value.

In data set [1] the test system is Cryptococcus neoformans. Briefly: Antifungal activity against Cryptococcus neoformans H99 assessed as reduction in fungal growth. Format: functional.
For data set [2], the system named is [Candida] auris. The data set can be described thus: Antifungal activity against Candida auris ATCC 15448 assessed as reduction in fungal growth. Format: functional. Particulars: Candidozyma auris.
For data set [3], the system named is [Candida] auris. Briefly: Antifungal activity against Candida auris 0029 assessed as reduction in fungal growth. Format: functional. The conditions noted are these: Candidozyma auris.
The nature of data set [4]: Solubility of compound in MeOH/H2O at pH 7 by HPLC analysis. Format: physicochemical.

A word on the MIC80: it is an inhibitory concentration at the 80% level, which refers to growth in some studies and to a panel of isolates in others. Take `S=c1n(-c2ccccn2)c2ccccc2n1-c1ccc(Cl)cn1`: the MIC80 in data set [1] is 64 µg/mL (≈ 189 µM); in data set [2], greater than 64 µg/mL; in data set [3], greater than 64 µg/mL.
As for `FC(F)(F)c1ccc(N/N=C(\c2ccccc2)c2ccccn2)cc1`, the MIC80 was 32 µg/mL (≈ 93.7 µM) in data set [1], greater than 64 µg/mL in data set [2] and greater than 64 µg/mL in data set [3].
Regarding `FC(F)(F)c1ccc(NN=C(c2ccccn2)c2ccccn2)cc1`, the MIC80 is 16 µg/mL (≈ 46.7 µM) in data set [1], greater than 64 µg/mL in data set [2] and greater than 64 µg/mL in data set [3].
For `COc1ccc(N/N=C(\c2ccccc2)c2ccccn2)nc1`, the MIC80 in data set [1] was 0.5 µg/mL (≈ 1.64 µM); in data set [2] it was 0.125 µg/mL (≈ 0.411 µM); in data set [3] it was 2 µg/mL (≈ 6.57 µM).
Broadly, the solubility is the dissolved amount per volume that the medium holds. A low value points to a poorly soluble substance. `N#Cc1ccc(NN=C(c2ccccn2)c2ccccn2)nc1`: the MIC80 was 0.5 µg/mL (≈ 1.66 µM) in data set [1], 0.125 µg/mL (≈ 0.416 µM) in data set [2] and 2 µg/mL (≈ 6.66 µM) in data set [3]. In addition, in data set [4], the solubility stood at 3.93 µg/mL (≈ 13.1 µM).
Take `O=c1c2ccccc2c(-c2ccccn2)nn1-c1ccc(Cl)cn1`: the results for the MIC80 in data set [1], in data set [2] and in data set [3] were 64 µg/mL (≈ 191 µM), greater than 64 µg/mL and greater than 64 µg/mL, respectively.
On to `FC(F)(F)c1ccc(N/N=C(/c2ccccc2)c2ccccn2)cc1`, for which the MIC80 in data set [1], in data set [2] and in data set [3] was greater than 64 µg/mL throughout.
For `Clc1cccnc1N/N=C(\c1ccccc1)c1ccccn1`, the figures for the MIC80 in data set [1], in data set [2] and in data set [3] were 1 µg/mL (≈ 3.24 µM), 0.5 µg/mL (≈ 1.62 µM) and 4 µg/mL (≈ 13 µM), respectively.
Consider `Fc1ccc(N/N=C(/c2ccccc2)c2ccccn2)cc1`, for which the MIC80 in data set [1] was 32 µg/mL (≈ 110 µM); in data set [2], 32 µg/mL (≈ 110 µM); in data set [3], 64 µg/mL (≈ 220 µM).
